The values that follow come from patent publication US12084444B2, “Spiro-lactam NMDA modulators and methods of using same” (Tenacia Biotechnology (Hong Kong) Co., Limited, priority 2016, dated 2024).

What all share (format): biochemical
In experiment [1] the target is T1, NMDAR2A expressing HEK cell membranes (Homo sapiens, UniProt Q05586+Q12879).
T1 construct: expressed in transfected cells; host or cells: HEK cells (membrane extract)
The experiment is described as follows: NMDAR agonist assay, [3H]MK-801 binding, NMDAR2A. Further details: key to NMDAR2A B: log EC50: 0=−; ≥1×10^−9 M (e.g., −8)=+; <1×10^−9 M (e.g., −10)=++. Particulars: 50 μM glutamate; for EC50: read-out: NMDAR2A B: log EC50 (converted); for Emax: 0.25 h, read-out: NMDAR2A A: % maximal [3H]MK-801 binding relative to 1 mM glycine. The procedure:
(§1) Assays were conducted as described by Moskal et al., “GLYX-13: a monoclonal antibody-derived peptide that acts as an N-methyl-D-aspartate receptor modulator,” Neuropharmacology, 49, 1077-87, 2005. These studies were designed to determine if the test compounds act to facilitate NMDAR activation in NMDAR2A, NMDAR2B, NMDAR2C or NMDAR2D expressing HEK cell membranes as measured by increases in [^3H]MK-801 binding.
(§2) In the assay, 300 μg of NMDAR expressing HEK cell membrane extract protein was preincubated for 15 minutes at 25° C. in the presence of saturating concentrations of glutamate (50 μM) and varying concentrations of test compound (1×10^−15 M-1×10^−7 M), or 1 mM glycine. Following the addition of 0.3 μCi of [^3H]MK-801 (22.5 Ci/mmol), reactions were again incubated for 15 minutes at 25° C. (nonequilibrium conditions). Bound and free [^3H]MK-801 were separated via rapid filtration using a Brandel apparatus.
(§3) In analyzing the data, the DPM (disintegrations per minute) of [^3H]MK-801 remaining on the filter were measured for each concentration of test compound or for 1 mM glycine. The DPM values for each concentration of a ligand (N=2) were averaged. The baseline value was determined from the best fit curve of the DPM values modeled using the GraphPad program and the log(agonist) vs. response(three parameters) algorithm was then subtracted from all points in the dataset. The % maximal [^3H]MK-801 binding was then calculated relative to that of 1 mM glycine: all baseline subtracted DPM values were divided by the average value for 1 mM glycine. The EC50 and % maximal activity were then obtained from the best fit curve of the % maximal [^3H]MK-801 binding data modelled using the GraphPad program and the log(agonist) vs. response(three parameters) algorithm.
(§4) The tables below summarize the results for the wild type NMDAR agonists NMDAR2A, NMDAR2B, NMDAR2C, and NMDAR2D, and whether the compound is not an agonist (−), is an agonist (+), or is a strong agonist (++), where column A is based on the % maximal [^3H]MK-801 binding relative to 1 mM glycine (−=0; <100%=+; and >100%=++); and column B is based on log EC50 values (0=−; ≥1×10^−9 M (e.g., −8)=+; and <1×10^−9 M (e.g., −10)=++).

For experiment [2], the target named is T2, NMDAR2A expressing HEK cell membranes (Homo sapiens, UniProt Q12879).
T2 construct: expressed in transfected cells; host or cells: HEK cells (membrane extract)
In words: NMDAR agonist assay, [3H]MK-801 binding, NMDAR2A. Further details: key to NMDAR2A B: log EC50: 0=−; ≥1×10^−9 M (e.g., −8)=+; <1×10^−9 M (e.g., −10)=++. The following applies: 50 μM glutamate; for EC50: read-out: NMDAR2A B: log EC50 (converted). The procedure: as §1, §2, §3, §4

Experiment [3] deals with T3, NMDAR2B expressing HEK cell membranes (Homo sapiens, UniProt Q13224).
T3 construct: expressed in transfected cells; host or cells: HEK cells (membrane extract)
The experiment is described as follows: NMDAR agonist assay, [3H]MK-801 binding, NMDAR2B. On the set-up: key to NMDAR2B B: log EC50: 0=−; ≥1×10^−9 M (e.g., −8)=+; <1×10^−9 M (e.g., −10)=++. The following applies: 50 μM glutamate; for EC50: read-out: NMDAR2B B: log EC50 (converted). The procedure: as §1, §2, §3, §4

For experiment [4], the target named is T4, NMDAR2B expressing HEK cell membranes (Homo sapiens, UniProt Q05586+Q13224).
T4 construct: expressed in transfected cells; host or cells: HEK cells (membrane extract)
The experiment is described as follows: NMDAR agonist assay, [3H]MK-801 binding, NMDAR2B. Further details: key to NMDAR2B B: log EC50: 0=−; ≥1×10^−9 M (e.g., −8)=+; <1×10^−9 M (e.g., −10)=++. Particulars: 50 μM glutamate; for Emax: 0.25 h, read-out: NMDAR2B A: % maximal [3H]MK-801 binding relative to 1 mM glycine; for EC50: read-out: NMDAR2B B: log EC50 (converted). The procedure: as §1, §2, §3, §4

T2 sequence (Q12879 23-1464, other chains not shown): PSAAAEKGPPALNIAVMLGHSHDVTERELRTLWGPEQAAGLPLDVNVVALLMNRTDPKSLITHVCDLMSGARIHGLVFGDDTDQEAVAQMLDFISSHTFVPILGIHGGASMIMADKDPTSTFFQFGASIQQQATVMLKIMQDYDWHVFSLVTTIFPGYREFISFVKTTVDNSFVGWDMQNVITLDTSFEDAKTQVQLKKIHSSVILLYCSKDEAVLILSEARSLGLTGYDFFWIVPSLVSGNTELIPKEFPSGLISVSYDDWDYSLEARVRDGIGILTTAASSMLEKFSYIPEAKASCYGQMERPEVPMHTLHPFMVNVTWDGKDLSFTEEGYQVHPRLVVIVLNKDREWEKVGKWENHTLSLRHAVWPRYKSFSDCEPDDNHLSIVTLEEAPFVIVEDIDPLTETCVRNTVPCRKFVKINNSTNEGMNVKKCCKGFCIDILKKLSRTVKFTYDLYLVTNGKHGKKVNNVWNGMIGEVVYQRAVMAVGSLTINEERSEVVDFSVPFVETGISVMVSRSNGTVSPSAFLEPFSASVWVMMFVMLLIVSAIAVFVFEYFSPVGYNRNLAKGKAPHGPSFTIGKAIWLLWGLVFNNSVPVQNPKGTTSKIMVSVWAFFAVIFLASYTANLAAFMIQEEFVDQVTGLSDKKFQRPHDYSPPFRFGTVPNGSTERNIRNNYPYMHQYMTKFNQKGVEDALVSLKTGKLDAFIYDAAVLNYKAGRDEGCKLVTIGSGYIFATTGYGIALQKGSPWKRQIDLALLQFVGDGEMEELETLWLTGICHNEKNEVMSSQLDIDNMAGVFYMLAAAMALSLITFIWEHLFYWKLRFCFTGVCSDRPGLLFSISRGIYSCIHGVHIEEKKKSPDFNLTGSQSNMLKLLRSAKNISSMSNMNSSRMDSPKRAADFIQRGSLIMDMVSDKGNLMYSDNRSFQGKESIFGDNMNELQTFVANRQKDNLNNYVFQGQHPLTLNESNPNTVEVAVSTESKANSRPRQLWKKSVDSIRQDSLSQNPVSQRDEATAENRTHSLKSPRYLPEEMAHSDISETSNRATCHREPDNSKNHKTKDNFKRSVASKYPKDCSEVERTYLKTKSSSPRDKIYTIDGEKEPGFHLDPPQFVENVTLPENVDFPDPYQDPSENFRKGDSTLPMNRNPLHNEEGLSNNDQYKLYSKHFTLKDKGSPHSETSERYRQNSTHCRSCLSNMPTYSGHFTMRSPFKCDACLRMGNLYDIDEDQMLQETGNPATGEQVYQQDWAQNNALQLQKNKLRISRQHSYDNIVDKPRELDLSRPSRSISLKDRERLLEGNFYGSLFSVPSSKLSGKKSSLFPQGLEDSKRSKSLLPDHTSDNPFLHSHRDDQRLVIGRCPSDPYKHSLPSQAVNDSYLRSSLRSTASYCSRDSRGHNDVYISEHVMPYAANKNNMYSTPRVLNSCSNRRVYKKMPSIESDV
T1 sequence (Q12879 23-1464, other chains not shown): as above
T3 sequence (Q13224 27-1484, other chains not shown): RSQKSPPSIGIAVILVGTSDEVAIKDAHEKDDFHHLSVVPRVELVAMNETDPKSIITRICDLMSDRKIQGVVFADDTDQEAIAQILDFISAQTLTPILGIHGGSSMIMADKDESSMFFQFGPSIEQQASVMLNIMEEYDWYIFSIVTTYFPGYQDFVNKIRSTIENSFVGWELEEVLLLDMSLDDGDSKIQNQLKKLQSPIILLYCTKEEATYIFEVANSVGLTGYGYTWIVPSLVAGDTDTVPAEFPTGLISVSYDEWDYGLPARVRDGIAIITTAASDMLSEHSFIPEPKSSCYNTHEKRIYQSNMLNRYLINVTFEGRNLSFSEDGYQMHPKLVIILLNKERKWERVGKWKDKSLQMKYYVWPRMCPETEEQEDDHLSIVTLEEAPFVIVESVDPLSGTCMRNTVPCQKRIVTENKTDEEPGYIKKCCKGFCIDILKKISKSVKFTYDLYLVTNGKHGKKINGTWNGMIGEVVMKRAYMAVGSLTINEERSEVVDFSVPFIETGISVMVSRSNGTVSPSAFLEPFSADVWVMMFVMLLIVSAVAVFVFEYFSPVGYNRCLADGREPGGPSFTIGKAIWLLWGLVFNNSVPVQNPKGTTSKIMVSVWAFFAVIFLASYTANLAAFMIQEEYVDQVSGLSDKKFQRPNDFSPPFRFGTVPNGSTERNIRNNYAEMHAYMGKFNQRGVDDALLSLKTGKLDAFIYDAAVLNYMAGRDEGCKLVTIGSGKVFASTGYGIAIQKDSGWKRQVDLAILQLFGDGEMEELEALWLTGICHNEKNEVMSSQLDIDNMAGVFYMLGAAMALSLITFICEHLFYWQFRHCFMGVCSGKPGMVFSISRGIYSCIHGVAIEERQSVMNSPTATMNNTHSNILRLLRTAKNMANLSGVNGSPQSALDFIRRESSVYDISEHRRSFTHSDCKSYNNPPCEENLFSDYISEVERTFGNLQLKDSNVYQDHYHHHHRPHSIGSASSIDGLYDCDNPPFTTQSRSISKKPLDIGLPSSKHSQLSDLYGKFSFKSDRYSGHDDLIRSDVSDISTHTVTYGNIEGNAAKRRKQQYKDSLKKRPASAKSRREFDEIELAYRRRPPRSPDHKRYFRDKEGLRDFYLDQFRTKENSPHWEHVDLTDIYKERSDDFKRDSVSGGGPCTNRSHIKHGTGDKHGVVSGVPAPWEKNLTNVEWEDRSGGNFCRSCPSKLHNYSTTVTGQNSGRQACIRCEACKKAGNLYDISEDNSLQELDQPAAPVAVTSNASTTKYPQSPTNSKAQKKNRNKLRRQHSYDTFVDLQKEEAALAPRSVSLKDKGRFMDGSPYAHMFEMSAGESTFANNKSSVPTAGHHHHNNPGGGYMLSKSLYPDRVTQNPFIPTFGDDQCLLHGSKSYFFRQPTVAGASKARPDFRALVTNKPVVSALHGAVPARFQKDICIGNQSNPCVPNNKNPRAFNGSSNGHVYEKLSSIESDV

Turning to `C[C@@H](O)[C@@H](C(=O)N(C)C)N1CC2(CCNC(=O)C2)C1=O` (single isomer, unassigned) [CD], the concentration giving a half-maximal response (EC50) (commonly the concentration at which the effect is half-maximal) in experiment [1] was less than 1 nM. Moreover, in experiment [2], the “NMDAR2A A: % maximal [3H]MK-801 binding relative to 1 mM glycine” value was “+ (<100%=+)”. Also, in experiment [3], the “NMDAR2B A: % maximal [3H]MK-801 binding relative to 1 mM glycine” value is on record as “+ (<100%=+)” and the EC50 was less than 1 nM.

With `COc1ccc(CN2CC3(CCN(C)C(=O)C3)C2=O)cc1` (single isomer, unassigned) [CJ, 2-(4-methoxybenzyl)-7-methyl-2,7-diazaspiro[3.5]nonane-1,6-dione], in experiment [2], the “NMDAR2A A: % maximal [3H]MK-801 binding relative to 1 mM glycine” value is on record as “+ (<100%=+)” and the EC50 is less than 1 nM. Further, in experiment [3], the “NMDAR2B A: % maximal [3H]MK-801 binding relative to 1 mM glycine” value was “++ (>100%=++)” and the EC50 is less than 1 nM.

For the compound `COc1ccc(CN2CC3(CCNC(=S)C3)C2=O)cc1` (single isomer, unassigned) [CM, 2-(4-methoxybenzyl)-6-thioxo-2,7-diazaspiro[3.5]nonan-1-one], the Emax in experiment [1] and in experiment [4] was 0% throughout. Further, the “NMDAR2A B: log EC50” value in experiment [2] is listed as “−”. Also, the “NMDAR2B B: log EC50” value in experiment [3] is given as “−”.

As for `COc1ccc(CN2CC3(CCNC(=S)C3)C2=S)cc1` (single isomer, unassigned) [CP, 2-(4-methoxybenzyl)-2,7-diazaspiro[3.5]nonane-1,6-dithione], in experiment [2], the “NMDAR2A A: % maximal [3H]MK-801 binding relative to 1 mM glycine” value was “+ (<100%=+)” and the EC50 is less than 1 nM. The EC50 in experiment [4] was less than 1 nM. For the same compound, the “NMDAR2B A: % maximal [3H]MK-801 binding relative to 1 mM glycine” value in experiment [3] is “+ (<100%=+)”.

In the case of `COc1ccc(CN2CC3(CCN(CC(C)C)C(=O)C3)C2=O)cc1` (single isomer, unassigned) [CS, 7-isobutyl-2-(4-methoxybenzyl)-2,7-diazaspiro[3.5]nonane-1,6-dione], in experiment [1], the EC50 is less than 1 nM and the Emax is less than 100%. Moreover, the EC50 in experiment [4] is less than 1 nM. Besides, in experiment [3], the “NMDAR2B A: % maximal [3H]MK-801 binding relative to 1 mM glycine” value is recorded as “++ (>100%=++)”.

As for `COc1ccc(CN2CC3(CCN(CC(C)C)C(=O)C3)C2=O)cc1` (single isomer, unassigned) [CT, 7-isobutyl-2-(4-methoxybenzyl)-2,7-diazaspiro[3.5]nonane-1,6-dione], in experiment [2], the “NMDAR2A A: % maximal [3H]MK-801 binding relative to 1 mM glycine” value is “+ (<100%=+)” and the EC50 is less than 1 nM. In experiment [3], the “NMDAR2B A: % maximal [3H]MK-801 binding relative to 1 mM glycine” value is “− (−=0)” and the “NMDAR2B B: log EC50” value was “−”.

For `O=C1CC2(CCN1)CN(Cc1ccccc1)C2=O` (single isomer, unassigned) [CV, 2-benzyl-2,7-diazaspiro[3.5]nonane-1,6-dione], in experiment [1], the EC50 is less than 1 nM. Further, in experiment [2], the “NMDAR2A A: % maximal [3H]MK-801 binding relative to 1 mM glycine” value is “+ (<100%=+)”. Further, in experiment [3], the “NMDAR2B A: % maximal [3H]MK-801 binding relative to 1 mM glycine” value was “+ (<100%=+)” and the 50% effective concentration (EC50) is less than 1 nM.

Take `CN1CCC2(CC1=O)CN(Cc1ccccc1)C2=O` (single isomer, unassigned) [CX, 2-benzyl-7-methyl-2,7-diazaspiro[3.5]nonane-1,6-dione]: in experiment [2], the “NMDAR2A A: % maximal [3H]MK-801 binding relative to 1 mM glycine” value is listed as “+ (<100%=+)” and the half-maximal effective concentration (EC50) was less than 1 nM. For the same compound, in experiment [3], the “NMDAR2B A: % maximal [3H]MK-801 binding relative to 1 mM glycine” value is on record as “+ (<100%=+)” and the concentration for a half-maximal effect (EC50) was less than 1 nM.

Regarding `CCN1CCC2(CC1=O)CN(Cc1ccccc1)C2=O` (single isomer, unassigned) [CY, 2-benzyl-7-ethyl-2,7-diazaspiro[3.5]nonane-1,6-dione], in experiment [1], the EC50 is less than 1 nM and the Emax is less than 100%. Further, the Emax in experiment [4] turned out to be 0%. Moreover, in experiment [3], the “NMDAR2B B: log EC50” value is recorded as “−”.

`CCN1CCC2(CC1=O)CN(Cc1ccccc1)C2=O` (single isomer, unassigned) [CZ, 2-benzyl-7-ethyl-2,7-diazaspiro[3.5]nonane-1,6-dione]: in experiment [1], the EC50 is no less than 1 nM. The “NMDAR2B B: log EC50” value in experiment [3] was “−”.

On to `NC(=O)CN1CC2(CCNC(=O)C2)C1=O` (single isomer, unassigned) [DD, 2-(1,6-dioxo-2,7-diazaspiro[3.5]nonan-2-yl)acetamide], for which, in experiment [2], the “NMDAR2A A: % maximal [3H]MK-801 binding relative to 1 mM glycine” value is reported as “− (−=0)” and the “NMDAR2A B: log EC50” value was “−”. In experiment [3], the “NMDAR2B A: % maximal [3H]MK-801 binding relative to 1 mM glycine” value is listed as “+ (<100%=+)” and the half-maximal effective concentration (EC50) is less than 1 nM.

Turning to `CC(C)CN1CC2(CCNC(=O)C2)C1=O` (single isomer, unassigned) [DF, 2-isobutyl-2,7-diazaspiro[3.5]nonane-1,6-dione], the EC50 in experiment [2] and in experiment [3] was less than 1 nM throughout.

`CN1CC2(CCNC(=O)C2)C1=O` (single isomer, unassigned) [DG, 2-methyl-2,7-diazaspiro[3.5]nonane-1,6-dione]: in experiment [1], the EC50 was less than 1 nM and the Emax was less than 100%. Moreover, in experiment [3], the “NMDAR2B A: % maximal [3H]MK-801 binding relative to 1 mM glycine” value is recorded as “− (−=0)” and the “NMDAR2B B: log EC50” value is “−”.

Consider `CN1CC2(CCNC(=O)C2)C1=O` (single isomer, unassigned) [DH, 2-methyl-2,7-diazaspiro[3.5]nonane-1,6-dione], for which, in experiment [2], the “NMDAR2A A: % maximal [3H]MK-801 binding relative to 1 mM glycine” value was “+ (<100%=+)” and the EC50 is less than 1 nM. Further, the half-maximal effective concentration (EC50) in experiment [4] is less than 1 nM. Moreover, in experiment [3], the “NMDAR2B A: % maximal [3H]MK-801 binding relative to 1 mM glycine” value is “++ (>100%=++)”.

Consider `CC1CC(=O)N(C)C12CN(CC(N)=O)C2=O` (single isomer, unassigned) [DJ, 2-(5,8-dimethyl-1,6-dioxo-2,5-diazaspiro[3.4]octan-2-yl)acetamide], for which, in experiment [2], the “NMDAR2A A: % maximal [3H]MK-801 binding relative to 1 mM glycine” value is given as “− (−=0)” and the “NMDAR2A B: log EC50” value is recorded as “−”. For the same compound, in experiment [3], the “NMDAR2B A: % maximal [3H]MK-801 binding relative to 1 mM glycine” value is “+ (<100%=+)” and the EC50 was less than 1 nM.

`CC1CC(=O)N(c2ccc(F)cc2)C12CN([C@H](C(N)=O)[C@@H](C)O)C2=O` (single isomer, unassigned) [DK]: in experiment [1], the EC50 is no less than 1 nM and the Emax is greater than 100%. Further, the Emax in experiment [4] was 0%. Further, the “NMDAR2B B: log EC50” value in experiment [3] is recorded as “−”.

Turning to `CC1CC(=O)N(c2ccc(F)cc2)C12CN([C@H](C(N)=O)[C@@H](C)O)C2=O` (single isomer, unassigned) [DL], in experiment [1], the EC50 is less than 1 nM. The “NMDAR2A A: % maximal [3H]MK-801 binding relative to 1 mM glycine” value in experiment [2] is “+ (<100%=+)”. Moreover, in experiment [3], the “NMDAR2B A: % maximal [3H]MK-801 binding relative to 1 mM glycine” value is “− (−=0)” and the “NMDAR2B B: log EC50” value is reported as “−”.

In the case of `CC1C(O)C(=O)N(C)C12CN(Cc1ccccc1)C2=O` (single isomer, unassigned) [DM, 2-benzyl-7-hydroxy-5,8-dimethyl-2,5-diazaspiro[3.4]octane-1,6-dione], in experiment [1], the concentration for a half-maximal effect (EC50) is no less than 1 nM and the Emax is less than 100%. Also, in experiment [4], the Emax worked out at 0%. The “NMDAR2B B: log EC50” value in experiment [3] is given as “−”.

Consider `CC1C(O)C(=O)N(C)C12CN(Cc1ccccc1)C2=O` (single isomer, unassigned) [DN, 2-benzyl-7-hydroxy-5,8-dimethyl-2,5-diazaspiro[3.4]octane-1,6-dione], for which, in experiment [1], the EC50 is less than 1 nM. Further, the “NMDAR2B B: log EC50” value in experiment [3] is given as “−”.

For `CC1CC(=O)N(c2ccc(F)cc2)C12CN(Cc1ccccc1)C2=O` (centres unmarked) [BY, 2-benzyl-5-(4-fluorophenyl)-8-methyl-2,5-diazaspiro[3.4]octane-1,6-dione], the Emax in experiment [1] and in experiment [4] was 0% in each case. The “NMDAR2A B: log EC50” value in experiment [2] is given as “−”. Besides, in experiment [3], the “NMDAR2B B: log EC50” value was “−”.
